Test results reported in US20200188237A1, “ENDODONTIC FORMULATIONS CONTAINING CYSTEAMINE AND CYSTEAMINE DERIVATIVES AND USES THEREOF” (University of Florida Research Foundation, Inc., priority 2017, published 2020).

What was measured:
[1] = system: Fusobacterium nucleatum (ATCC10953); experiment: Bacterial removal from root canals of inoculated extracted human mandibular molars, instrumentation/irrigation, qPCR; assay type: cell-based; conditions: pre- vs post-instrumentation/irrigation, human mandibular molars incubated 14 days anaerobic
Protocol: (§1) Forty human mandibular molars were accessed, sterilized, inoculated with Enterococcus faecalis (OG1RF) and Fusobacterium nucleatum (ATCC10953), and incubated for 14 days under anaerobic conditions. Teeth were divided into 3 groups (n=10): 1) 6.15% NaOCl, 2) 8.25% NaOCl, 3) Cysteamine. Controls (n=5): negative without inoculation and positive without instrumentation/irrigation. Mesiobuccal and mesiolingual canals were instrumented using Vortex Blue to 30/.04 and the corresponding irrigant, followed by neutralization with EDTA and saline. Samples were collected pre- and post-instrumentation/irrigation. Total DNA was extracted and quantitative real-time PCR was performed. Data were analyzed using one-way ANOVA with Bonferroni's multiple comparisons (p<0.05). See FIG. 1 for a schematic representation of the methods.

[2] = system: Enterococcus faecalis (OG1RF); experiment: as above; assay type: cell-based; conditions: pre- vs post-instrumentation/irrigation, human mandibular molars incubated 14 days anaerobic
Protocol: as §1

| Structure (SMILES) | percent reduction in Fusobacterium nucleatum ([1]; Cysteamine irrigant) [%] | percent reduction in Enterococcus faecalis ([2]; Cysteamine irrigant) [%] | percent reduction in Fusobacterium nucleatum ([1]; 6.15% NaOCl irrigant) [%] | percent reduction in Fusobacterium nucleatum ([1]; 8.25% NaOCl irrigant) [%] | percent reduction in Enterococcus faecalis ([2]; 6.15% NaOCl irrigant) [%] | percent reduction in Enterococcus faecalis ([2]; 8.25% NaOCl irrigant) [%] |
| --- | --- | --- | --- | --- | --- | --- |
| NCCS [Cysteamine] | 68.5 | 60 |  |  |  |  |
| OCl [NaOCl, sodium hypochlorite] |  |  | 59.9 | 63.4 | 49 | 54 |
